Reference: US8314215B2, “Mild chemically cleavable linker system” (The Board of Trustees of the Leland Stanford Junior …, priority 2006, dated 2012)

Columns and labels:
Assay in all cases: LC/MS/MS identification of proteins from mouse liver extracts labeled with MTS-I-49
Type in all cases: biochemical
[1] = biological target: T1, glycine N-methyltransferase (Mus musculus, UniProt Q9QXF8)
T1 construct: from tissue; host or cells: mouse liver extract
T1 sequence (Q9QXF8 1-293): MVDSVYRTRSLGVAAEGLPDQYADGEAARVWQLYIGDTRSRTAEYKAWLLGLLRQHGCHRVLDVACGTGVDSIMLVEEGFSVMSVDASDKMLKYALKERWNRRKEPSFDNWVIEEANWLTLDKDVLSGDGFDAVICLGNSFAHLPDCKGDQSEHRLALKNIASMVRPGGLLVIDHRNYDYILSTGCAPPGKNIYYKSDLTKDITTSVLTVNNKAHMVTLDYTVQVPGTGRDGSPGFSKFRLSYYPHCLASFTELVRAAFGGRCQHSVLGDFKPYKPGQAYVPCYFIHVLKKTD
Text: (§1) (1991) Irreversible inhibition of serine proteases by peptide derivatives of (alpha-aminoalkyl)phosphonate diphenyl esters. Biochemistry 30, 485-493). However, it has not been used for any proteomic applications. We used MTS-I-49 to label mouse liver extracts and analyze the labeled sample by both SDS-PAGE (FIG. 5B) and by direct chemical cleavage or on bead digestion.
(§2) After enrichment on immobilized avidin, each of the three labeled proteomes (FIG. 5b) was divided into two aliquots. One was prepared for LC-MS/MS analysis by “on bead” digestion, while the other was chemically eluted and digested “in solution.” Proteins identified in each tissue lysate are listed with their accession number and theoretical molecular weight (MW). To compare both approaches, the number of identified peptides and percentage of amino acid sequence coverage is listed for each protein.
(§3) Proteins in the above Table were identified by LC/MS/MS analysis of on bead digested or chemically eluted proteins from mouse liver extracts labeled with MTS-I-49. […] BLAST database searching identified it as liver carboxylesterase 4. A number of additional endogenously biotinylated proteins were identified in the on-bead digested sample.

alcohol dehydrogenase 1 = biological target: T2, alcohol dehydrogenase 1 (Mus musculus, UniProt P00329)
T2 construct: from tissue; host or cells: mouse liver extract
T2 sequence (P00329 whole entry): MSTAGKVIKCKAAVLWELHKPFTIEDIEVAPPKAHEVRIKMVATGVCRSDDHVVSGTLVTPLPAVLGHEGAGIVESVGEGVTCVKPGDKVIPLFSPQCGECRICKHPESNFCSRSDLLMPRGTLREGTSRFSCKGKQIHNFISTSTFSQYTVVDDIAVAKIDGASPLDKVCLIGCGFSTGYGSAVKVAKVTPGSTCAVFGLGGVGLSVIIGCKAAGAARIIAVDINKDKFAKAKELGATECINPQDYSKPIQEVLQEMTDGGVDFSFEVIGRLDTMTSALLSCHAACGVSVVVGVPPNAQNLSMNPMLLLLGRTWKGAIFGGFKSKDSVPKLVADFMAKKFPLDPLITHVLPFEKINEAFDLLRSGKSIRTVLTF
Text: as §1, §2, §3

Liver carboxylesterase 4 = biological target: T3, Liver carboxylesterase 4 (Mus musculus, UniProt Q91WU0)
T3 construct: from tissue; host or cells: mouse liver extract
T3 sequence (Q91WU0 18-561): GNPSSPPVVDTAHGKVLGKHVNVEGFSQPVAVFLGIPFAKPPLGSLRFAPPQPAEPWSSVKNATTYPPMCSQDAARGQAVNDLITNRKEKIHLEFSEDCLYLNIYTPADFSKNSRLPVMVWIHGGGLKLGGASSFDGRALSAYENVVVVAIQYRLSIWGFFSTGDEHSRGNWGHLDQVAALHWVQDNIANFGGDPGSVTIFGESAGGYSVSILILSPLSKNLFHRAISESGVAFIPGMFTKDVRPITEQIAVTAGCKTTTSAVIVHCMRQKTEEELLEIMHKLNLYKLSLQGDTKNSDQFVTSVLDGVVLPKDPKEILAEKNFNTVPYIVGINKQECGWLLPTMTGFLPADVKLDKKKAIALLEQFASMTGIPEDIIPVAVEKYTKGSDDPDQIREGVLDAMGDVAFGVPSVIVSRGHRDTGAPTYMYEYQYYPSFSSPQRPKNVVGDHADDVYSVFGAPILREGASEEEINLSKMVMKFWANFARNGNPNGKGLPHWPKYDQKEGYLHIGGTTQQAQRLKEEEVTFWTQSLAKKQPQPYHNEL
Text: as §1, §2, §3

[2] = test system: acetyl-Coenzyme A dehydrogenase
Text: as §1, §2, §3

[3] = test system: fructose-bisphosphate aldolase
Text: as §1, §2, §3

[4] = biological target: T4, methionine adenosyltransferase 1 (Mus musculus, UniProt Q91X83)
T4 construct: from tissue; host or cells: mouse liver extract
T4 sequence (Q91X83 whole entry): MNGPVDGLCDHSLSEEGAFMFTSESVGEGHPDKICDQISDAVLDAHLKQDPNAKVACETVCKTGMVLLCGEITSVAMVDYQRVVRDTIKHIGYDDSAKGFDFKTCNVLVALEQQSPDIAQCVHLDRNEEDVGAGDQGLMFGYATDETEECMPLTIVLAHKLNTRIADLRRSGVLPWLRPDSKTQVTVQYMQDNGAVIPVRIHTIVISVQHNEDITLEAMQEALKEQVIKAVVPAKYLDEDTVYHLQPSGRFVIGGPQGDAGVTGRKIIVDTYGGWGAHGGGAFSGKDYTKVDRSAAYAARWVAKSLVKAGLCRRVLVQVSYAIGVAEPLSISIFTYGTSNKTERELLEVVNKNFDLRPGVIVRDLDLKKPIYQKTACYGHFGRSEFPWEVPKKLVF
Text: as §1, §2, §3

[5] = chemically eluted, digested in solution
[6] = Liver carboxylesterase 4, chemically eluted, digested in solution
[7] = Liver carboxylesterase 4, on bead digestion

Structure (SMILES): C[C@H](NC(=O)c1ccc(N=Nc2cc(CCNC(=O)CCCC[C@@H]3SC[C@@H]4NC(=O)N[C@@H]43)ccc2O)cc1)C(=O)N[C@@H](C)C(=O)NC(Cc1ccccc1)P(=O)(Oc1ccccc1)Oc1ccccc1 (some centres unmarked) [MTS-I-49]
- Chemical Cleavage, number of identified peptides [1, 5]: 0
- On Bead Digestion, amino acid sequence coverage ([1]; on bead digestion): 10%
- On Bead Digestion, number of identified peptides ([1]; on bead digestion): 2
- Chemical Cleavage, number of identified peptides (alcohol dehydrogenase 1; [5]): 0
- On Bead Digestion, amino acid sequence coverage (alcohol dehydrogenase 1; on bead digestion): 20%
- On Bead Digestion, number of identified peptides (alcohol dehydrogenase 1; on bead digestion): 3
- Chemical Cleavage, amino acid sequence coverage (Liver carboxylesterase 4; [6]): 38%
- Chemical Cleavage, number of identified peptides (Liver carboxylesterase 4; [6]): 14
- On Bead Digestion, amino acid sequence coverage (Liver carboxylesterase 4; [7]): 51%
- On Bead Digestion, number of identified peptides (Liver carboxylesterase 4; [7]): 20
- target identification after chemical cleavage (Liver carboxylesterase 4; mouse liver extracts, hypothetical protein identified by BLAST as liver carboxylesterase 4): primary probe target
- Chemical Cleavage, number of identified peptides [2, 5]: 0
- On Bead Digestion, amino acid sequence coverage ([2]; on bead digestion): 34%
- On Bead Digestion, number of identified peptides ([2]; on bead digestion): 3
- Chemical Cleavage, number of identified peptides [3, 5]: 0
- On Bead Digestion, amino acid sequence coverage ([3]; on bead digestion): 6%
- On Bead Digestion, number of identified peptides ([3]; on bead digestion): 2
- Chemical Cleavage, number of identified peptides [4, 5]: 0
- On Bead Digestion, amino acid sequence coverage ([4]; on bead digestion): 9%
- On Bead Digestion, number of identified peptides ([4]; on bead digestion): 2
